Experimental data taken from US20260103471A1, “CYCLIC UREA THIAZOLYL COMPOUNDS FOR TREATMENT OF HSV” (Assembly Biosciences, Inc., priority 2022, published 2026).
Read-outs that look alike come from different tables or passages of the source.

Experiments:
HSV-1 = HSV-1 Antiviral Assay (Vero cells, cell viability); assay type: cell-based; details: read-out: HSV-1 EC50
Method: Vero cells were cultured in Dulbecco's Modified Eagle Medium (DMVEM) supplemented with […] and 100 units/mL penicillin and streptomycin. The cells were passaged 2-3 times per week to maintain sub-confluent densities.
Vero cells were seeded into 96-well plates at a density of 2.5×10^3 cells per well and allowed to attach overnight. Following attachment, the media was replaced with 50 μL of infection medium (DMVEM supplemented with 2% fetal bovine serum and 100 units/mL penicillin and streptomycin). A Tecan D300e digital dispenser was then used to add compounds to the culture using an 8-point 3-fold serial dilution format. The DMSO concentration was normalized to 0.5% for all treatments. Following compound addition, 50 μL of infection medium containing 80 TCID50 HSV-1 was added to the cells and incubated at 37° C. for 4 days. After the incubation, the plates were equilibrated to room temperature, the media was removed, and […] a 1:1 dilution of Cell titer glow and phosphate buffered saline was added to the cells. Following a 5-minute incubation, cell viability was quantified by measuring luminance using a Tecan Infinite M1000 Pro plate reader.

HSV-2 G strain = test: HSV-2 Antiviral Assay (Vero cells, cell viability); assay type: cell-based; details: Human alphaherpesvirus 2, Vero, 120 h, Vero cells, 160 TCID50 HSV-2 G strain, 5 days, cell viability
Method in brief: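 Vero cells (1.0×10^4/well, attached overnight) given 8-point 3-fold compound dilutions (0.5% DMSO) then infected with 160 TCID50 HSV-2 G strain in 2% FBS medium for 5 days at 37 °C. Protection read as cell viability by WST-8 absorbance at 460 and 620 nm after 3 h.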

[1] = Human alphaherpesvirus 1, 96 h, Vero cells, 80 TCID50 HSV-1, 4 days, cell viability

| Structure (SMILES) | EC50 (HSV-1; [1]) [nM] | EC50 (HSV-2 G strain) [nM] | other results |
| --- | --- | --- | --- |
| Cc1nc(N2CCCN(c3ccc(-c4cccc(NC(=O)OC(C)(C)C)n4)cc3)C2=O)sc1S(N)(=O)=O [Compound 34] | 100 to 1000 | – | – |
| Cc1nc(N2CCCN(c3ccc(-c4cccc5cccnc45)cc3)C2=O)sc1S(N)(=O)=O [Compound 82] | 100 to 1000 | – | – |
| Cc1nc(N2CCCN(c3ccc(-c4cccc5c4ccn5C)cc3)C2=O)sc1S(N)(=O)=O [Compound 66] | < 100 | – | – |
| Cc1nc(N2CC3(CC3)CN(c3ccc(-c4ccccc4F)cc3)C2=O)sc1[S@@](C)(=N)=O (single isomer, unassigned) [Compound 160] | 100 to 1000 | – | – |
| Cc1nc(N2CC3(CC3)CN(c3ccc(-c4ccccc4F)cc3)C2=O)sc1S(C)(=N)=O (stereo not shown) [Compound 158] | 100 to 1000 | – | – |
| CC[S@@](=N)(=O)c1sc(N2CCCN(c3ccc(-c4cc(F)ccc4F)cc3)C2=O)nc1C (single isomer, unassigned) [Compound 149] | 100 to 1000 | – | – |
| Cc1nc(N2CCCN(c3ccc(-c4cc(F)ccc4F)cc3)C2=O)sc1S(C)(=N)=O (stereo not shown) [Compound 139, 1-(2′,5′-Difluoro-[1,1′-biphenyl]-4-yl)-3-(4-methyl-5-(S-methylsulfonimidoyl)thiazol-2-yl) tetrahydropyrimidin-2(1H)-one] | 100 to 1000 | – | – |
| NS(=O)(=O)c1sc(N2CCCN(c3ccc(-c4cc(F)ccc4F)cc3)C2=O)nc1C(F)(F)F [Compound 169, 2-(3-(2′,5′-Difluoro-[1,1′-biphenyl]-4-yl)-2-oxotetrahydropyrimidin-1(2H)-yl)-4-(trifluoromethyl) thiazole-5-sulfonamide] | < 100 | – | – |
| Cc1nc(N2CCCN(Cc3cccc(-c4ccccc4)c3)C2=O)sc1S(=O)(=O)NC1CC1 [Compound 183] | 100 to 1000 | – | – |
| Cc1nc(N2CCCN([C@@H](C)c3cccc(-c4ccccc4F)c3)C2=O)sc1S(N)(=O)=O (single isomer, unassigned) [Compound 179] | 1000 to 5000 | – | – |
| Cc1nc(N2CCCN(c3ccc(-c4cc(F)ccc4F)cc3)C2=O)sc1S(=O)(=O)C(C)C [Compound 162, 1-(2′,5′-Difluoro-[1,1′-biphenyl]-4-yl)-3-(5-(isopropylsulfonyl)-4-methylthiazol-2-yl) tetrahydropyrimidin-2(1H)-one] | 100 to 1000 | – | – |
| CCS(=N)(=O)c1sc(N2CCCN(c3ccc(-c4cc(F)ccc4F)cc3)C2=O)nc1C (stereo not shown) [Compound 148] | < 100 | – | – |
| Cc1nc(N2CCCN(C(C)c3cccc(-c4ccccc4F)c3)C2=O)sc1S(N)(=O)=O (stereo not shown) [Compound 177] | 1000 to 5000 | – | – |
| Cc1nc(N2CCCN(c3ccc(-c4cc(F)ccc4F)cc3)C2=O)sc1S(=O)(=O)F [Compound 165] | – | – | EC50 (HSV-1; Human alphaherpesvirus 1, Vero, 96 h): 1000 to 5000 nM |
| Cc1nc(N2CCCN(c3ccc(-c4n[nH]c5ccccc45)cc3)C2=O)sc1S(N)(=O)=O [Compound 91] | 100 to 1000 | – | – |
| Cc1nc(N2CCCN(c3ccc(-c4nc5ccccc5o4)cc3)C2=O)sc1S(N)(=O)=O [Compound 87] | 1000 to 5000 | – | – |
| CS(=O)(=O)c1cnc(N2CCCN(c3ccc(-c4cc(F)ccc4F)cc3)C2=O)s1 [Compound 167] | 100 to 1000 | – | – |
| Cc1nc(N2CCCN(c3ccc(-c4cccc5cnn(C)c45)cc3)C2=O)sc1S(N)(=O)=O [Compound 63] | < 100 | – | – |
| NS(=O)(=O)c1sc(N2CCCN(c3ccc(-c4ccccc4F)cc3)C2=O)nc1C(F)(F)F [Compound 170] | < 100 | – | – |
| Cc1nc(N2CCN(c3ccc(-c4cc(F)ccc4F)cc3)C2=O)sc1S(N)(=O)=O [Compound 104] | 1000 to 5000 | – | – |

| Structure (SMILES) | EC50 (HSV-1; [1]) [nM] | EC50 (HSV-2 G strain) [nM] | other results |
| --- | --- | --- | --- |
| CNS(=O)(=O)c1sc(N2CCCN(c3ccc(-c4cccc(NC(=O)OC(C)(C)C)n4)cc3)C2=O)nc1C [Compound 125] | 100 to 1000 | – | – |
| Cc1nc(N2CCCN(c3ccc(-c4cccc5cn(C)nc45)cc3)C2=O)sc1S(N)(=O)=O [Compound 53] | 100 to 1000 | – | – |
| CC[S@](=N)(=O)c1sc(N2CCCN(c3ccc(-c4cc(F)ccc4F)cc3)C2=O)nc1C (single isomer, unassigned) [Compound 150] | < 100 | – | – |
| Cc1nc(N2CC3(CC3)CN(c3ccc(-c4ccccc4F)cc3)C2=O)sc1S(N)(=O)=O [Compound 111] | < 100 | – | – |
| Cc1nc(N2CCCN(c3ccc(-c4cccc5ncn(C)c45)cc3)C2=O)sc1S(N)(=O)=O [Compound 62] | 1000 to 5000 | – | – |
| Cc1nc(N2CCCN(c3ccc(-c4cccc(C(F)(F)F)c4)cc3)C2=O)sc1S(N)(=O)=O [Compound 15] | 100 to 1000 | – | – |
| Cc1nc(N2CCCN(c3ccc(-c4cc(F)ccc4F)cc3)C2=O)sc1S(=O)(=O)N1CCNCC1 [Compound 135] | 100 to 1000 | – | – |
| Cc1nc(N2CCCN(c3ccc(-c4cnccn4)cc3)C2=O)sc1S(N)(=O)=O [Compound 39] | 100 to 1000 | – | – |
| Cc1nc(N2CCCN(c3ccc(-c4nc(C(F)(F)F)cs4)cc3)C2=O)sc1S(N)(=O)=O [Compound 46] | 100 to 1000 | – | – |
| Cc1nc(N2CCCN(c3ccc(-c4cccc5ccncc45)cc3)C2=O)sc1S(N)(=O)=O [Compound 83] | < 100 | – | – |
| Cc1nc(N2CCCN(c3ccc(-c4cc(F)ccc4F)cc3)C2=O)sc1S(=O)(=O)Nc1ccccc1 [Compound 134] | 100 to 1000 | – | – |
| Cc1cnc(-c2ccc(N3CCCN(c4nc(C)c(S(N)(=O)=O)s4)C3=O)cc2)s1 [Compound 44] | 1000 to 5000 | – | – |
| Cc1nc(N2CCCN(c3ccc(-c4cccc5scnc45)cc3)C2=O)sc1S(N)(=O)=O [Compound 71, 2-(3-(4-(Benzo[d]thiazol-4-yl)phenyl)-2-oxotetrahydropyrimidin-1(2H)-yl)-4-methylthiazole-5-sulfonamide] | < 100 | – | – |
| C#Cc1cc(F)c(-c2ccc(N3CCCN(c4nc(C)c(S(N)(=O)=O)s4)C3=O)cc2)cc1F [Compound 29] | 1000 to 5000 | – | – |
| Cc1nc(N2CCCN(c3ccc(-c4cccc5c4ncn5C)cc3)C2=O)sc1S(N)(=O)=O [Compound 61] | 100 to 1000 | – | – |
| Cc1nc(N2CCCN(c3ccc(-c4cccc5c4CC(=O)N5)cc3)C2=O)sc1S(N)(=O)=O [Compound 76] | 1000 to 5000 | – | – |
| Cc1nc(N2CCCN(Cc3cccc(-c4cc(F)ccc4F)c3)C2=O)sc1S(=O)(=O)NC1CC1 [Compound 180] | 100 to 1000 | – | – |
| Cc1nc(N2CC(C(C)(C)O)CN(c3ccc(-c4snc5ccccc45)cc3)C2=O)sc1S(N)(=O)=O (stereo not shown) [Compound 348] | – | 100 to 1000 | – |
| Cc1nc(N2CC3(CCCC3)CN(c3ccc(-c4cccc5ncsc45)cc3)C2=O)sc1S(N)(=O)=O [Compound 337] | – | < 100 | – |
| Cc1nc(N2CCCN(c3ccc(-c4cc(C(F)(F)F)cc5c4ccn5C)cc3)C2=O)sc1S(N)(=O)=O [Compound 246] | – | < 100 | – |

| Structure (SMILES) | EC50 (HSV-1; [1]) [nM] | EC50 (HSV-2 G strain) [nM] | other results |
| --- | --- | --- | --- |
| Cc1nc(N2CCCN(c3ccc(-c4cc(F)ccc4-c4cnn(C)c4)cc3)C2=O)sc1S(N)(=O)=O [Compound 207] | – | 100 to 1000 | – |
| Cc1nc(N2CCCN(c3ccc(-c4cc(-c5cncs5)ccc4F)cc3)C2=O)sc1S(N)(=O)=O [Compound 230] | – | 100 to 1000 | – |
| Cc1nc(N2CCCN(c3ccc(-c4cccc5ccnn45)cc3)C2=O)sc1S(N)(=O)=O [Compound 248] | – | < 100 | – |
| Cc1nc(N2C(=O)N(c3ccc(-c4cc(F)ccc4F)cc3)CC[C@H]2C)sc1S(N)(=O)=O (single isomer, unassigned) [Compound 108] | – | < 100 | – |
| COc1c(F)cc(F)cc1-c1ccc(N2CC(C(C)(C)O)CN(c3nc(C)c(S(N)(=O)=O)s3)C2=O)cc1 (stereo not shown) [Compound 345] | – | 100 to 1000 | – |
| Cc1nc(N2CCCN(c3ccc(-c4cc(Cl)ccn4)cc3)C2=O)sc1S(N)(=O)=O [Compound 185] | – | < 100 | – |
| Cc1nc(N2CC3(CC3)CN(c3ccc(-c4nnco4)cc3)C2=O)sc1S(N)(=O)=O [Compound 335] | – | 1000 to 5000 | – |
| Cc1nc(N2CCCN(c3ccc(-c4cc(F)ccc4F)cc3)C2=O)sc1S(=O)(=O)NN [Compound 405] | – | 100 to 1000 | – |
| Cc1nc(N2CCCN(c3ccc(-c4ccccc4/C=C/C#N)cc3)C2=O)sc1S(N)(=O)=O [Compound 20] | – | 100 to 1000 | – |
| COc1c(F)cc(F)cc1-c1ccc(N2C[C@H](C(F)(F)F)CN(c3nc(C)c(S(N)(=O)=O)s3)C2=O)cc1 (single isomer, unassigned) [Compound 374] | – | < 100 | – |
| Cc1nc(N2CCCN(c3ccc(-c4cc(F)ccc4F)cc3)C2=O)sc1S(=O)(=O)NCC1COC1 [Compound 404] | – | < 100 | – |
| Cc1nc(N2CCCN(c3ccc(-c4cccc(-c5nccs5)c4)cc3)C2=O)sc1S(N)(=O)=O [Compound 30, 4-methyl-2-(2-oxo-3-(3′-(thiazol-2-yl)-[1,1′-biphenyl]-4-yl)tetrahydropyrimidin-1(2H)-yl)thiazole-5-sulfonamide] | – | < 100 | – |
| Cc1nc(N2CCCN(c3ccc(-c4cc(F)ccc4F)cc3)C2=O)sc1S(=O)(=O)NCCC(C)(C)O [Compound 393] | – | < 100 | – |
| Cc1nc(N2CC3(COC3)CN(c3ccc(-c4cc(F)ccc4F)cc3)C2=O)sc1S(C)(=N)=O (stereo not shown) [Compound 431] | – | < 100 | – |
| Cc1nc(N2CCCN(c3ccc(-c4cccc5c4OCO5)cc3)C2=O)sc1S(N)(=O)=O [Compound 81] | – | 100 to 1000 | – |
| Cc1nc(N2CCCN(c3ccc(-c4ccc(F)cc4F)cc3)C2=O)sc1S(N)(=O)=O [Compound 187] | – | 100 to 1000 | – |
| COc1ccc(-c2ccc(N3CCCN(c4nc(C)c(S(N)(=O)=O)s4)C3=O)cc2)c2cnn(C)c12 [Compound 58] | – | < 100 | – |
| Cc1nc(N2CCCN(c3ccc(-c4ccnc5ncsc45)cc3)C2=O)sc1S(N)(=O)=O [Compound 272] | – | 1000 to 5000 | – |
